Source: US10172905B1, “Treatment of protein degradation disorders” (President and Fellows of Harvard College, priority 2005, dated 2019)
“Also recorded” adds a separate entry of the source.

Legend:
MM.1S cells [1] = experiment: [3H]-thymidine uptake with or without IL-6; assay type: cell-based, human; conditions: tubacin 1.25-5 μM, IL-6 5-20 ng/ml, 48 h
Protocol: Proliferation was measured by ^3H-thymidine uptake. Briefly, MM cells (3×10^4 cells/well) were incubated in 96-well culture plates in the presence of media, Velcade and/or Tubacin for 48 h at 37° C. DNA synthesis was measured by [^3H]-thymidine ([^3H]-TdR, Perkin Elmer, Boston, Mass.) uptake. Cells were pulsed with [^3H]TdR (0.5 μCi/well) during the last 8 h of 48 h cultures. All experiments were performed in triplicate.

[2] = test system: tubulin acetylation versus lysine acetylation; experiment: Immunofluorescence assay for acetylated tubulin versus acetylated lysine; assay type: cell-based
Text: The present invention provides an immunofluorescence-based assay for identifying test agents with HDAC and/or TDAC inhibitory activity. The inventive assay is based on the use of specific antibodies for acetylated tubulin and acetylated lysine (i.e., a marker for acetylated histones). […] As described above, any type of agent, including small molecules, polymers, biomolecules, proteins, peptides, polynucleotides, etc., may be screened using the inventive assay. In certain embodiments, small molecules are screened. In certain particular embodiments, the small molecules are tubacin-like or are tubacin derivatives. In certain embodiments, the small molecules are compounds of the present invention. The test agents may also be small molecules purchased, prepared through traditional synthetic techniques, prepared through combinatorial chemistry techniques, or obtained from historical chemical collections. In certain embodiments, the test agents are biomolecules. In other embodiments, the test agents are proteins or peptides. In yet other embodiments, the test agents are polynucleotides. In certain embodiments, the test agents are polymers.
The assay involves contacting cells with a specific concentration of the test agent under specific conditions. […] There particular parameters may be determined by the operator or scientist conducting the assay as would be appreciated by one of skill in this art. After a determined time of incubation with the test compound, the cells are treated with a first primary antibody directed against acetylated tubulin and a second primary antibody directed against acetylated lysine. […] The signal from each of the secondary antibodies is measured and optionally quantitated to determine the amount of TDAC and HDAC inhibition under the specified conditions with the test agent. Optionally, the extent of inhibition is determined relative to a control in which no test agent was added. In certain embodiments, the secondary antibody is left out and the primary antibodies are uniquely labeled for identification and optionally quantification. […]

MM.1S and RPMI cells = experiment: Synergy with Velcade/Bortezomib in myeloma cell lines; assay type: cell-based
A549 lung cancer cells = conditions: previously reported; cited from earlier work
[3] = test system: MM patient plasma cells from BM (BMPCs); experiment: MTT cytotoxicity assay in MM patient plasma cells; assay type: cell-based, human; conditions: tubacin 5 μM with bortezomib, 24 h
Text: Dex-sensitive (MM.1S) and resistant (MM.1R) human MM cell lines were kindly provided by Dr. Steven Rosen (Northwestern University, Chicago, Ill.). RPMI8226 and U266 human MM cell lines were obtained from American Type Culture Collection (Rockville, Md.). IL-6 dependent INA-6 cell line was kindly provided by Dr M Gramatzki (Erlangen, Germany). Melphalan-resistant RPMI-LR5 and doxorubicin-resistant RPMI-Dox40 cell lines were provided by Dr William Dalton (Lee Moffitt Cancer Center, Tampa, Fla.). All MM cell lines were cultured in RPMI-1640 containing 10% fetal bovine serum (FBS, Sigma Chemical Co., St. Louis, Mo.), […] L-glutamine, 100 U/ml penicillin, and 100 μg/ml streptomycin (GIBCO, Grand Island, N.Y.). INA-6 cells were maintained with addition of IL-6 (1 ng/ml). MM patient plasma cells were purified from bone marrow (BM) aspirates by negative selection using an antibody cocktail (RosetteSep Separation System, StemCell Technologies, Vancouver, Canada), as previously described (31). The purity of MM cells was >90%, as confirmed by flow cytometric analysis using anti-CD138 Ab (BD Pharmingen, San Diego, Calif.). […]
The inhibitory effect of bortezomib and/or tubacin on MM cell growth was assessed by measuring 3-(4,5-dimethylthiazol-2-yl)-2,5-diphenyl tetrazolium bromide (MTT) dye absorbance, as described previously (33). […]

MM.1S cells [4] = experiment: Cell cycle profile by flow cytometry (PI staining); assay type: cell-based, human; conditions: 24 h
Protocol: […] Cells were then stained with propidium iodine (PI, Sigma) (5 μg/ml) and cell cycle profile was determined using program M software on an Epics flow cytometer (Coulter Immunology, Hialeah, Fla.) (44).

[5] = test system: MM.1S cells and RPMI cells; experiment: Inhibition of protein catabolism in myeloma cells; assay type: cell-based; conditions: FIG. 18

**Q.** For `O=C(CCCCCCC(=O)Nc1ccc([C@H]2O[C@@H](CSc3nc(-c4ccccc4)c(-c4ccccc4)o3)C[C@@H](c3ccc(CO)cc3)O2)cc1)NO` [tubacin], which “growth inhibitory / cytotoxic effect of tubacin in the presence of IL-6” value (MM.1S cells [1]) is on record?
**A.** Its value is “maintained; also recorded: did not overcome”.

**Q.** What about the “specificity for tubulin acetylation versus lysine acetylation” value ([2]; A549 cells) of the same compound?
**A.** Its value is “specificity”.

**Q.** What about the “specificity for tubulin acetylation versus lysine acetylation” value ([2]; cells not given) of the same compound?
**A.** Its value is “specificity”.

**Q.** And the “synergy with Velcade” value (MM.1S and RPMI cells; MM.1S and RPMI cells)?
**A.** Its value is “synergy”.

**Q.** And the “toxicity and synergy with Bortezomib” value (MM.1S and RPMI cells; MM.1S cells)?
**A.** Its value is “toxicity and synergy”.

**Q.** And the “toxicity and synergy with Bortezomib” value (MM.1S and RPMI cells; RPMI-8226 cells)?
**A.** Its value is “toxicity and synergy”.

**Q.** And the “histone acetylation, transcriptional profile, cell cycle, viability” value (A549 lung cancer cells)?
**A.** The value was “no effect on histone acetylation, the transcriptional profile, cell cycle, or viability of A549 lung cancer cells”.

**Q.** And the “effect of tubacin on bortezomib (Velcade)-induced cytotoxicity in patient MM cells” value [3]?
**A.** Its value is “markedly augmented by tubacin; also recorded: significantly (p<0.01) augments cytotoxicity triggered by Velcade; also recorded: synergistically enhances bortezomib-induced cytotoxicity”.

**Q.** And the “G2/M arrest triggered by Velcade” value (MM.1S cells [4]; Velcade 5 nM with tubacin 5 μM)?
**A.** The value was “significantly inhibits G2/M arrest”.

**Q.** What about the cell cycle profile (MM.1S cells [4]; tubacin 5 μM alone) of the same compound?
**A.** The cell cycle profile was “does not alter cell cycle profile”.

**Q.** What about the “inhibition of protein catabolism” value [5] of the same compound?
**A.** Its value is “potent inhibitors of protein catabolism”.
